Assay results from the supplement of paper PMC11061612.

How the values were obtained:
[1] = system: CHL-1 (Melanoma); assay: Bliss excess, mean over the matrix (fraction); higher = more synergy
Method in brief: (§1)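 Cell lines in DMEM/F12 or RPMI with 10% FBS were plated in 1536-well plates, held 24 hours at 37°C, 5% CO2, then given two-drug dose matrices for 72 hours (DMSO typically 0.2%). Viability was read by CellTiter-Glo 2.0 luminescence and scaled as inhibition from 0 (vehicle wells) to 1 (blank wells). Combination Emax is the second-highest inhibition in the matrix; Bliss excess is observed combination effect minus expected EA + EB − EA·EB, EA and EB being single-agent effects.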

[2] = system: Caov-3 (Ovarian Carcinoma); assay: as above
Method in brief: as §1

[3] = system: OV-90 (Ovarian Carcinoma); assay: as above
Method in brief: as §1

[4] = system: COLO-684 (Endometrial Carcinoma); assay: as above
Method in brief: as §1

[5] = system: SW684 (Other Solid Carcinomas); assay: as above
Method in brief: as §1

[6] = system: JHH-1 (Hepatocellular Carcinoma); assay: as above
Method in brief: as §1

[7] = system: OCI-AML5 (Acute Myeloid Leukemia); assay: as above
Method in brief: as §1

[8] = system: NKM-1 (Acute Myeloid Leukemia); assay: as above
Method in brief: as §1

[9] = system: CML-T1 (Chronic Myelogenous Leukemia); assay: as above
Method in brief: as §1

[10] = system: HTC-C3 (Thyroid Gland Carcinoma); assay: as above
Method in brief: as §1

[11] = system: SJRH30 (Rhabdomyosarcoma); assay: as above
Method in brief: as §1

[12] = system: EB-3 (Burkitt's Lymphoma); assay: as above
Method in brief: as §1

[13] = system: ES-2 (Ovarian Carcinoma); assay: as above
Method in brief: as §1

[14] = system: PANC-02-03 (Pancreatic Carcinoma); assay: as above
Method in brief: as §1

[15] = system: OVTOKO (Ovarian Carcinoma); assay: as above
Method in brief: as §1

[16] = system: AN3-CA (Endometrial Carcinoma); assay: as above
Method in brief: as §1

[17] = system: RMG-I (Ovarian Carcinoma); assay: as above
Method in brief: as §1

[18] = system: NCI-H1155 (Non-Small Cell Lung Carcinoma); assay: combination Emax (second highest fraction inhibited in the dose matrix, 72 h); higher = more inhibition; extreme values may be limits of the assay
Method in brief: as §1

[19] = system: LAMA-84 (Chronic Myelogenous Leukemia); assay: as above
Method in brief: as §1

[20] = system: SNU-175 (Colorectal Carcinoma); assay: Bliss excess, mean over the matrix (fraction); higher = more synergy
Method in brief: as §1
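Wherever Bliss excess, mean over the matrix is given: after 72 h of two-drug dosing.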

| Compound | Bliss excess [1] | Bliss excess [2] | Bliss excess [3] | Bliss excess [4] | Bliss excess [5] | Bliss excess [6] | Bliss excess [7] | Bliss excess [8] | Bliss excess [9] | Bliss excess [10] | Bliss excess [11] | Bliss excess [12] | Bliss excess [13] | Bliss excess [14] | Bliss excess [15] | Bliss excess [16] | Bliss excess [17] | combination Emax [18] | combination Emax [19] | Bliss excess [20] |
| --- | --- | --- | --- | --- | --- | --- | --- | --- | --- | --- | --- | --- | --- | --- | --- | --- | --- | --- | --- | --- |
| Cc1c2c(nn1C)CSCc1cc(n(C)n1)CSc1cc(c3ccccc3c1)OCCCc1c(C(=O)O)n(C)c3c-2c(Cl)ccc13 [AZD5991] + Cn1cnc2c(F)c(Nc3ccc(Br)cc3Cl)c(C(=O)NOCCO)cc21 [Selumetinib] (first compound max 1 µM, 7x7, partner max 3 µM) | -0.0031 | 0.0536 | -0.0143 | -0.0177 | -0.0091 | 0.0408 | 0.0422 | -0.0014 | 0.0516 | -0.0271 | 0.0386 | -0.0424 | 0.0389 | -0.003 | -0.039 | 0.0158 | -0.0027 | 0.363 | 0.912 |  |
| NC1(C(=O)N[C@@H](CCO)c2ccc(Cl)cc2)CCN(c2ncnc3[nH]ccc23)CC1 [Capivasertib] + C[C@@H]1COCCN1C2=NC(=NC(=C2)C3(CC3)[S@](=N)(=O)C)C4=C5C=CNC5=NC=C4 [AZD6738] (first compound max 10 µM, 7x7, partner max 10 µM) | -0.0329 |  | -0.0159 | -0.0262 | -0.0465 | -0.0294 | -0.017 | -0.0479 | -0.0774 | -0.0323 | -0.0324 | -0.0579 | -0.0716 | -0.004 | -0.0084 | -0.0526 | -0.0371 | 0.816 | 0.941 | -0.0099 |
| NC1(C(=O)N[C@@H](CCO)c2ccc(Cl)cc2)CCN(c2ncnc3[nH]ccc23)CC1 [Capivasertib] + Cn1cnc2c(F)c(Nc3ccc(Br)cc3Cl)c(C(=O)NOCCO)cc21 [Selumetinib] (first compound max 10 µM, 7x7, partner max 10 µM) | 0.0588 |  | -0.0313 | -0.0343 | 0.0495 | -0.0896 | 0.0645 | 0.142 | 0.0217 | 0.0677 | 0.0297 | -0.0424 | 0.0171 | 0.0589 | -0.0566 | -0.0016 | 0.0235 | 0.473 | 0.977 | -0.0408 |
| Cc1nc(Nc2ncc(C(=O)Nc3c(C)cccc3Cl)s2)cc(N2CCN(CCO)CC2)n1 [Dasatinib] + CC(=O)Nc1cccc(-n2c(=O)n(C3CC3)c(=O)c3c(Nc4ccc(I)cc4F)n(C)c(=O)c(C)c32)c1 [Trametinib] (first compound max 2 µM, 7x7, partner max 1 µM) | 0.0137 |  | -0.0067 | -0.0482 | 0.0004 | 0.0492 | -0.0515 | -0.0196 | -0.0296 | -0.0093 | -0.0973 | -0.0156 | 0.0522 | 0.0762 | -0.139 | -0.168 | -0.0276 | 0.237 | 1 | -0.0992 |
| COc1cc2ncnc(Nc3ccc(F)c(Cl)c3)c2cc1OCCCN1CCOCC1 [Gefitinib] + CC(C)n1c(=O)n(C)c2cnc3cc(F)c(-c4ccc(OCCCN5CCCCC5)nc4)cc3c21 [AZD1390] (first compound max 10 µM, 7x7, partner max 0.3 µM) | -0.0472 |  | -0.0468 | -0.0395 | -0.0557 | -0.0772 | -0.051 | -0.0581 | -0.0252 | -0.0976 | -0.0407 | -0.0192 | -0.0989 | -0.0431 | -0.0672 | -0.0592 | -0.0346 | 0.0815 | 0.315 | -0.0457 |
| CS(=O)(=O)CCNCc1ccc(-c2ccc3ncnc(Nc4ccc(OCc5cccc(F)c5)c(Cl)c4)c3c2)o1 [Lapatinib] + C[C@@H](Oc1cc(-c2cnn(C3CCNCC3)c2)cnc1N)c1c(Cl)ccc(F)c1Cl [Crizotinib] (first compound max 10 µM, 7x7, partner max 10 µM) | -0.0393 |  | -0.0019 | -0.0364 | -0.0389 | -0.0906 | -0.003 | -0.0604 | -0.106 | 0.0215 | -0.0323 | -0.0572 | -0.0565 | -0.0617 | -0.0437 | -0.0223 | -0.0367 | 0.61 | 1 | -0.0001 |
| CC(=O)c1c(C)c2cnc(Nc3ccc(N4CCNCC4)cn3)nc2n(C2CCCC2)c1=O [Palbociclib] + CC1(C)CCC(CN2CCN(c3ccc(C(=O)NS(=O)(=O)c4ccc(NCC5CCOCC5)c([N+](=O)[O-])c4)c(Oc4cnc5[nH]ccc5c4)c3)CC2)=C(c2ccc(Cl)cc2)C1 [Venetoclax] (first compound max 10 µM, 7x7, partner max 1 µM) | -0.0357 |  | -0.0553 | -0.0614 | -0.0492 | -0.0601 | 0.0436 | 0.0548 | -0.0899 | -0.0214 | -0.0363 | -0.0455 | -0.0219 | -0.0319 | -0.0114 | -0.024 | -0.0541 | 0.241 | 0.496 | 0.0639 |
| CC(=O)c1c(C)c2cnc(Nc3ccc(N4CCNCC4)cn3)nc2n(C2CCCC2)c1=O [Palbociclib] + Cc1c2c(nn1C)CSCc1cc(n(C)n1)CSc1cc(c3ccccc3c1)OCCCc1c(C(=O)O)n(C)c3c-2c(Cl)ccc13 [AZD5991] (first compound max 10 µM, 7x7, partner max 1 µM) | 0.0344 |  | -0.0568 | -0.0173 | -0.0906 | -0.0111 | 0.0572 | -0.0003 | -0.0233 | 0.0082 | -0.0488 | -0.0271 | -0.0182 | -0.0522 | -0.0315 | -0.0305 | -0.061 | 0.237 | 0.663 | -0.0496 |
| CC(=O)c1c(C)c2cnc(Nc3ccc(N4CCNCC4)cn3)nc2n(C2CCCC2)c1=O [Palbociclib] + Cn1cnc2c(F)c(Nc3ccc(Br)cc3Cl)c(C(=O)NOCCO)cc21 [Selumetinib] (first compound max 10 µM, 7x7, partner max 10 µM) | -0.0342 |  | 0.0151 | -0.04 | -0.018 | -0.0693 | 0.0868 | -0.0194 | -0.013 | 0.0564 | -0.0131 | -0.0727 | -0.0041 | 0.0334 | -0.0503 | -0.0278 | -0.0165 | 0.21 | 0.945 | 0.0599 |
| C[C@@H](c1ccc2nccn2c1)n1nnc2ncc(-c3cnn(C)c3)nc21 [Savolitinib] + CC1(C)CCC(CN2CCN(c3ccc(C(=O)NS(=O)(=O)c4ccc(NCC5CCOCC5)c([N+](=O)[O-])c4)c(Oc4cnc5[nH]ccc5c4)c3)CC2)=C(c2ccc(Cl)cc2)C1 [Venetoclax] (first compound max 1 µM, 7x7, partner max 1 µM) | -0.0511 |  | -0.063 | -0.0458 | -0.0461 | -0.0529 | -0.031 | 0.0653 | -0.0156 | -0.053 | -0.0577 | -0.0614 | -0.0324 | -0.0231 | -0.0675 | -0.0499 | -0.0756 | 0.149 | 0.172 | -0.0764 |
| C[C@@H](c1ccc2nccn2c1)n1nnc2ncc(-c3cnn(C)c3)nc21 [Savolitinib] + Cc1c2c(nn1C)CSCc1cc(n(C)n1)CSc1cc(c3ccccc3c1)OCCCc1c(C(=O)O)n(C)c3c-2c(Cl)ccc13 [AZD5991] (first compound max 1 µM, 7x7, partner max 1 µM) | -0.023 |  | -0.0519 | -0.0158 | -0.0608 | -0.0462 | -0.0178 | -0.0069 | 0.0118 | -0.0373 | -0.0432 | -0.076 | -0.0299 | -0.0374 | -0.0743 | -0.0365 | -0.0327 | 0.114 | 0.234 | -0.0713 |
| Cn1cnc2c(F)c(Nc3ccc(Br)cc3Cl)c(C(=O)NOCCO)cc21 [Selumetinib] + C=CCn1c(=O)c2cnc(Nc3ccc(N4CCN(C)CC4)cc3)nc2n1-c1cccc(C(C)(C)O)n1 [AZD1775] (first compound max 10 µM, partner max 1 µM) | -0.0386 |  | -0.0274 | -0.0323 | -0.106 | 0.0171 | 0.036 | -0.0478 | -0.0607 | 0.0338 | -0.0372 | -0.0729 | 0.0334 | -0.0033 | -0.114 | -0.0495 | -0.0005 | 0.342 | 0.973 | -0.0174 |
| Cn1cnc2c(F)c(Nc3ccc(Br)cc3Cl)c(C(=O)NOCCO)cc21 [Selumetinib] + CC(C)n1c(=O)n(C)c2cnc3cc(F)c(-c4ccc(OCCCN5CCCCC5)nc4)cc3c21 [AZD1390] (first compound max 10 µM, 7x7, partner max 0.3 µM) | -0.0482 |  | 0.0131 | -0.0257 | -0.0616 | -0.0268 | -0.0198 | -0.107 | -0.0441 | -0.0092 | -0.031 | -0.0806 | -0.0215 | -0.0139 | -0.0509 | -0.0669 | -0.0268 | 0.23 | 0.926 | 0.0063 |
| Cn1cnc2c(F)c(Nc3ccc(Br)cc3Cl)c(C(=O)NOCCO)cc21 [Selumetinib] + CCN(CCO)CCCOc1ccc2c(Nc3cc(CC(=O)Nc4cccc(F)c4)[nH]n3)ncnc2c1 [AZD2811] (first compound max 10 µM, 7x7, partner max 1 µM) | -0.0579 |  | -0.0252 | -0.0211 | -0.036 | -0.0327 | -0.0225 | -0.0376 | 0.0685 | -0.0228 | -0.0008 | -0.0415 | -0.0322 | -0.0144 | -0.0303 | 0.0242 | -0.0385 | 0.674 | 0.958 | -0.0253 |
| Cn1cnc2c(F)c(Nc3ccc(Br)cc3Cl)c(C(=O)NOCCO)cc21 [Selumetinib] + C[C@@H]1COCCN1C2=NC(=NC(=C2)C3(CC3)[S@](=N)(=O)C)C4=C5C=CNC5=NC=C4 [AZD6738] (first compound max 10 µM, 7x7, partner max 10 µM) | -0.0498 |  | 0.0049 | -0.0474 | -0.071 | 0.0427 | 0.0024 | -0.0748 | -0.0631 | -0.0072 | -0.0293 | -0.069 | 0.0006 | 0.04 | -0.0278 | 0.0359 | 0.0106 | 0.758 | 0.992 | 0.0644 |
